One may read the IC50 as the concentration needed to halve the response being measured. A word on the Papp A→B: it is how fast a substance crosses the layer from the apical side. As a reminder, the fraction unbound is the share of the substance not bound to proteins or other matrix. In general, solubility refers to how much of the substance goes into solution per volume. Read a high solubility as a readily soluble substance.

Series [1] deals with Nicotinamide phosphoribosyltransferase (Homo sapiens, UniProt P43490). In words: Inhibition of C-terminal His-6-tagged full length human NAMPT expressed in Escherichia coli (DE3) cells after 30 mins by mass spectrometry-based analysis.
Series [2] has as its system A2780. The series can be described thus: Antiproliferative activity against human A2780 cells assessed as cell viability after 72 hrs by SRB assay. The series is classed as functional, cell-based. Conditions: A2780, 72 h. (In general: Sulforhodamine B stains cellular protein and so reports cell mass.)
Series [3] can be described thus: Apparent permeability from apical to basolateral side in MDCK cells at 10 uM by LC-MS/MS analysis. The series is classed as ADME, cell-based, Canis lupus familiaris. Particulars: dog.
The nature of series [4]: Fraction unbound in mouse plasma at 5 uM by LC-MS/MS analysis. The series is classed as ADME, cell-free.
A short description of series [5]: Aqueous solubility of the compound in PBS at pH 7.2 by LC/CLND analysis. The series is classed as physicochemical.
The subject of series [6] is A2780. The series can be described thus: Antiproliferative activity against human A2780 cells assessed as cell viability after 72 hrs by SRB assay in presence of nitotinamide mononucleotide. The series is classed as functional, cell-based.

Values after ≈ are worked out from the molar mass of the structure shown. Active and inactive are the calls of the source. No cut-off for these calls is given here. Where only a bound is given, the exact number is not on record here.

Sequence of Nicotinamide phosphoribosyltransferase (P43490 whole entry): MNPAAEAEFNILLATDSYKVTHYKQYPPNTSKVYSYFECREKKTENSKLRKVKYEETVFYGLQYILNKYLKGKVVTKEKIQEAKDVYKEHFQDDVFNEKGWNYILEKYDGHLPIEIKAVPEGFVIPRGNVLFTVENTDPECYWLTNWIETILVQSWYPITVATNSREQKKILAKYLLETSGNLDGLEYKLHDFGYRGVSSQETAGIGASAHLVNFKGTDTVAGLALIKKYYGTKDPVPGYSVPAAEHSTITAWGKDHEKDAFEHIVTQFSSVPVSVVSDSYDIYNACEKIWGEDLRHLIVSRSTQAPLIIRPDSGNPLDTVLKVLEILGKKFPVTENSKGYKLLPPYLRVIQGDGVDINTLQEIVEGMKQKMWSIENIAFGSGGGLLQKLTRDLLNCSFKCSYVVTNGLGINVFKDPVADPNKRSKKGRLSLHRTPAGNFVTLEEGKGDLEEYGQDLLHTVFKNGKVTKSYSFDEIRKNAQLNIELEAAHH

`CN(C)c1ccc(S(=O)(=O)c2ccc(CNC(=O)c3cnc4[nH]ncc4c3)cc2)cn1`: the IC50 in series [1] was determined as 12 nM; in series [2], 3.2 nM. Moreover, the Papp A→B at 10 µM in series [3] came out at 1.5 ×10⁻⁶ cm/s. The fraction unbound at 5 µM in series [4] came to 0.018. For the same compound, the solubility in series [5] was < 1 µM. In series [6], the inhibition entry was “inactive”.
On to `O=C(NCc1ccc(S(=O)(=O)c2cccc(OC(F)(F)F)c2)cc1)c1cnc2[nH]ncc2c1`, for which the IC50 amounted to 7.7 nM in series [1] and 4.8 nM in series [2]. Also, the Papp A→B at 10 µM in series [3] was 4 ×10⁻⁶ cm/s. The free fraction (fraction unbound) at 5 µM in series [4] amounted to 0.008. Also, in series [5], the solubility was < 1 µM. Besides, in series [6], the inhibition result is “inactive”.
Take `O=C(NCc1ccc(S(=O)(=O)c2cnc3ccccc3c2)cc1)c1cnc2[nH]ncc2c1`: the IC50 in series [1] came to 8.2 nM; in series [2] it was 2.2 nM. The apical-to-basolateral permeability (Papp A→B) at 10 µM in series [3] stood at 1.6 ×10⁻⁶ cm/s. Also, the fraction unbound at 5 µM in series [4] turned out to be 0.009. Moreover, in series [5], the solubility is < 1 µM. In series [6], the inhibition entry is “inactive”.
On to `O=C(NCc1ccc(S(=O)(=O)c2ccc(N3CCOCC3)nc2)cc1)c1cnc2[nH]ncc2c1`, for which the values for the IC50 in series [1] and in series [2] were 4.5 nM and 1.3 nM, respectively. Further, in series [3], the apical-to-basolateral permeability (Papp A→B) at 10 µM was 0.85 ×10⁻⁶ cm/s. Moreover, the fraction unbound at 5 µM in series [4] is 0.019. The solubility in series [5] was < 1 µM. Further, in series [6], the inhibition result is “inactive”.
As for `CCCn1cc(S(=O)(=O)c2ccc(CNC(=O)c3cnc4[nH]ncc4c3)cc2)cn1`, the figures for the IC50 in series [1] and in series [2] were 10 nM and 6.9 nM, respectively. In addition, the Papp A→B at 10 µM in series [3] stood at 1.9 ×10⁻⁶ cm/s. The same compound yielded a free fraction (fraction unbound) at 5 µM in series [4] of 0.071. In series [5], this compound gave a solubility of 8.8 µM (≈ 3.74 µg/mL). In addition, in series [6], the inhibition entry was “inactive”.
Take `O=C(NCc1ccc(S(=O)(=O)c2cncc(Cl)c2)cc1)c1cnc2[nH]ncc2c1`: the IC50 in series [1] was 11 nM; in series [2] it was 2.4 nM. Further, the Papp A→B at 10 µM in series [3] came to 2.5 ×10⁻⁶ cm/s. In series [4], this compound showed a fraction unbound at 5 µM of 0.074. Besides, the solubility in series [5] was < 1 µM. Also, the inhibition entry in series [6] is “inactive”.
For `O=C(NCc1ccc(S(=O)(=O)c2cncc(C(F)(F)F)c2)cc1)c1cnc2[nH]ncc2c1`, the IC50 in series [1] amounted to 10 nM; in series [2], 4.5 nM. Further, in series [3], the Papp A→B at 10 µM is 4.4 ×10⁻⁶ cm/s. The compound also yielded a fraction unbound at 5 µM in series [4] of 0.05. For the same compound, in series [5], the solubility is < 1 µM. For the same compound, in series [6], the inhibition result was “inactive”.

(Values after ChEMBL document CHEMBL3259558, “Identification of amides derived from 1H-pyrazolo[3,4-b]pyridine-5-carboxylic acid as potent inhibitors of human nicotinamide phosphoribosyltransferase (NAMPT)” (Bioorg Med Chem Lett, 2013).)
